These are literature values, as cited in article PMC9065038 (Scientific Reports, 2022).

On the set-up of data set [1]: method as in PMID 28635181. The settings on record: rats.
The target in data set [2] is NOP receptor (S346, S351, T362/S363) (Homo sapiens, UniProt P41146).
The conditions of data set [3]: in vivo.
The conditions of data set [4]: in vivo. The source holds these as a separate data set.
The conditions of data set [5]: constipation, respiratory depression.

Chain of NOP receptor (S346, S351, T362/S363) (P41146 whole entry): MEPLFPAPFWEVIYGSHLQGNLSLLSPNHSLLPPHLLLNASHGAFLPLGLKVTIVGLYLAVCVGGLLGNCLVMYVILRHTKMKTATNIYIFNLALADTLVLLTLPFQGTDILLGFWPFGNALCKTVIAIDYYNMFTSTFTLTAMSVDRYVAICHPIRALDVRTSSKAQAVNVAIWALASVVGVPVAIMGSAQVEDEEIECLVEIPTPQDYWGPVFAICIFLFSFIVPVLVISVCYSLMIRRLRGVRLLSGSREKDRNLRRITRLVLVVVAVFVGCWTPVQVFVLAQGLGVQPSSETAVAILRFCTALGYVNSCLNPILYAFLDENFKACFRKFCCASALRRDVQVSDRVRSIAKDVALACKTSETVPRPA

For the molecule `CCC1C(=O)N(C2CCN(CCC(c3ccccc3)c3ccccc3)CC2)c2ccccc21` (stereo not drawn) [AT-034], the cocaine self-administration entry in data set [1] is recorded as “significantly reduce cocaine self-administration”.

Regarding buprenorphine, in data set [2], the “NOP phosphorylation profile (in words)” value was “none at NOP”.

On to `CC(C)[C@H]1CC[C@@H](N2CCC3(CC2)C(=O)N(CCNS(N)(=O)=O)Cc2ccccc23)CC1` [AT-121], for which, in data set [3], the “anti-nociceptive and anti-hyperalgesic effects” value is “potent anti-nociceptive and anti-hyperalgesic effects”. In addition, in data set [4], the “reinforcing effects or physical dependence” value is “devoid of reinforcing effects or physical dependence” and the tolerance development entry is listed as “significantly lower tolerance development”.

In the case of `COc1ccsc1CNCC[C@@]1(c2ccccn2)CCOC2(CCCC2)C1` [TRV130], in data set [5], the “side-effects in clinical trials” value is “failed to produce therapeutic results devoid of side-effects”.
